{"source": "ChEMBL document CHEMBL5678818", "about": "“Discovery of potent SOS1 inhibitors that block RAS activation via disruption of the RAS-SOS1 interaction” (Proc Natl Acad Sci U S A, 2019)", "key": {"[1]": {"molecular_target": "G protein-coupled receptor kinase 3 (Homo sapiens) (UniProt P35626)", "sequence (P35626 whole entry)": "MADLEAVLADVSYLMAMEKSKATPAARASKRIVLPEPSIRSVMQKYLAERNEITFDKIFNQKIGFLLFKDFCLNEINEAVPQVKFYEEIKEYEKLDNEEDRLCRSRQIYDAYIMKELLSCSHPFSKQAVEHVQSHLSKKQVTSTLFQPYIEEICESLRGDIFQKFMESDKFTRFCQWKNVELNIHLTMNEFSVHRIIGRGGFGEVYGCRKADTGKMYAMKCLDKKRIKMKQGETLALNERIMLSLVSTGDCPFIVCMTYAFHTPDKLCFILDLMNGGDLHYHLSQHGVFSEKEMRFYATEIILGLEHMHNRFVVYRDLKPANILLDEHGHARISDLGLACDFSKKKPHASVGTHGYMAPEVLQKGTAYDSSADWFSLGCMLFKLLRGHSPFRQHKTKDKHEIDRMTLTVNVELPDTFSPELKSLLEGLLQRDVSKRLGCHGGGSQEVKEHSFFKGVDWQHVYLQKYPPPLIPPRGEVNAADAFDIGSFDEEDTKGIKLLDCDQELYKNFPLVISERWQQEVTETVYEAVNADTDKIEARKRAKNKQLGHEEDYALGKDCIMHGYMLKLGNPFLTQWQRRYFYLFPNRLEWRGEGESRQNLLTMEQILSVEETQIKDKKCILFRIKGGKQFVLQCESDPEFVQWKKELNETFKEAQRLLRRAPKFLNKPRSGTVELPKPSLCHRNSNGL", "test": "Inhibition of GRK3 (unknown origin) assessed as residual activity at 1000 nM by KINOMEscan analysis relative to control"}, "[2]": {"system": "Fibroblast growth factor receptor 3 (Homo sapiens), P22607 [G697C]", "sequence (P22607 whole entry G697C)": "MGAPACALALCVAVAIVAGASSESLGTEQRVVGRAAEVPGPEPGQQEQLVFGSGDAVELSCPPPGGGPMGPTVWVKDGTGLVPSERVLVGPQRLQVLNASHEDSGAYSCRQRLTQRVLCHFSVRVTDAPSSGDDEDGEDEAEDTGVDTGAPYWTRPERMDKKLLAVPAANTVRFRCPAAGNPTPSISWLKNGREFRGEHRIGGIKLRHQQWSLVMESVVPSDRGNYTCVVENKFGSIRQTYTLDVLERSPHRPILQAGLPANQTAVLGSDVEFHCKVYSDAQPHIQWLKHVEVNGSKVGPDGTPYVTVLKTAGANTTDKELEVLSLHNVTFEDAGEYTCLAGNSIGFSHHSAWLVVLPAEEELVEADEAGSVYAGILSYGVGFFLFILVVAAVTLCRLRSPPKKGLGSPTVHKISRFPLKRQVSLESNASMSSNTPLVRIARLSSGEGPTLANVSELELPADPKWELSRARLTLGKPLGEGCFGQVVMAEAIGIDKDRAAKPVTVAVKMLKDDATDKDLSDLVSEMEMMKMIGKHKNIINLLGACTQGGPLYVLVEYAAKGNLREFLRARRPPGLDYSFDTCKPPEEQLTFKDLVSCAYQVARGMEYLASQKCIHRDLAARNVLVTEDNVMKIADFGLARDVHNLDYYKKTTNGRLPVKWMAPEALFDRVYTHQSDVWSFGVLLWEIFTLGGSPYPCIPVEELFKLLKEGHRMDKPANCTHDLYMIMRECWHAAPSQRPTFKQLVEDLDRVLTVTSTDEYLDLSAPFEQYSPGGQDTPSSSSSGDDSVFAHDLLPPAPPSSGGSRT", "test": "Inhibition of FGFR3 G697C mutant (unknown origin) assessed as residual activity at 100 nM by KINOMEscan analysis relative to control"}, "[3]": {"molecular_target": "Serine/threonine-protein kinase PLK3 (Homo sapiens) (UniProt Q9H4B4)", "sequence (Q9H4B4 whole entry, looked up)": "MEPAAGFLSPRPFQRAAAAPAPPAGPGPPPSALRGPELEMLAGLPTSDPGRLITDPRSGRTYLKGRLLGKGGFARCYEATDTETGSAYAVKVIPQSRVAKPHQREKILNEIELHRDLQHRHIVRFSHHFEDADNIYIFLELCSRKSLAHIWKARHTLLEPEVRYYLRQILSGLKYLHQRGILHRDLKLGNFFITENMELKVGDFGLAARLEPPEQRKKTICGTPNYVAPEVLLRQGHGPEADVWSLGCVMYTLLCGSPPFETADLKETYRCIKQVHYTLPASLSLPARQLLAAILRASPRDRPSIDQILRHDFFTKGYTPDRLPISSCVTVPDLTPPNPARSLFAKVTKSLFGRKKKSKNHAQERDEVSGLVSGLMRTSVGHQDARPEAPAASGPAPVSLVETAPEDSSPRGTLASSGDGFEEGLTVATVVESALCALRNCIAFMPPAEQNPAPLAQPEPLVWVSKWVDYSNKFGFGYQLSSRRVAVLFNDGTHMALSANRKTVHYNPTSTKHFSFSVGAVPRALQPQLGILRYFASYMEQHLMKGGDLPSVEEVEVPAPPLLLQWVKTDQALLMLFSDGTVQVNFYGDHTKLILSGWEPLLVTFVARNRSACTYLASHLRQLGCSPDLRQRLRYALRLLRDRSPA", "test": "Inhibition of PLK3 (unknown origin) assessed as residual activity at 100 nM by KINOMEscan analysis relative to control"}, "[4]": {"system": "Epidermal growth factor receptor (Homo sapiens), P00533 [UNDEFINED MUTATION]", "sequence (P00533 whole entry, looked up, stated change not applied)": "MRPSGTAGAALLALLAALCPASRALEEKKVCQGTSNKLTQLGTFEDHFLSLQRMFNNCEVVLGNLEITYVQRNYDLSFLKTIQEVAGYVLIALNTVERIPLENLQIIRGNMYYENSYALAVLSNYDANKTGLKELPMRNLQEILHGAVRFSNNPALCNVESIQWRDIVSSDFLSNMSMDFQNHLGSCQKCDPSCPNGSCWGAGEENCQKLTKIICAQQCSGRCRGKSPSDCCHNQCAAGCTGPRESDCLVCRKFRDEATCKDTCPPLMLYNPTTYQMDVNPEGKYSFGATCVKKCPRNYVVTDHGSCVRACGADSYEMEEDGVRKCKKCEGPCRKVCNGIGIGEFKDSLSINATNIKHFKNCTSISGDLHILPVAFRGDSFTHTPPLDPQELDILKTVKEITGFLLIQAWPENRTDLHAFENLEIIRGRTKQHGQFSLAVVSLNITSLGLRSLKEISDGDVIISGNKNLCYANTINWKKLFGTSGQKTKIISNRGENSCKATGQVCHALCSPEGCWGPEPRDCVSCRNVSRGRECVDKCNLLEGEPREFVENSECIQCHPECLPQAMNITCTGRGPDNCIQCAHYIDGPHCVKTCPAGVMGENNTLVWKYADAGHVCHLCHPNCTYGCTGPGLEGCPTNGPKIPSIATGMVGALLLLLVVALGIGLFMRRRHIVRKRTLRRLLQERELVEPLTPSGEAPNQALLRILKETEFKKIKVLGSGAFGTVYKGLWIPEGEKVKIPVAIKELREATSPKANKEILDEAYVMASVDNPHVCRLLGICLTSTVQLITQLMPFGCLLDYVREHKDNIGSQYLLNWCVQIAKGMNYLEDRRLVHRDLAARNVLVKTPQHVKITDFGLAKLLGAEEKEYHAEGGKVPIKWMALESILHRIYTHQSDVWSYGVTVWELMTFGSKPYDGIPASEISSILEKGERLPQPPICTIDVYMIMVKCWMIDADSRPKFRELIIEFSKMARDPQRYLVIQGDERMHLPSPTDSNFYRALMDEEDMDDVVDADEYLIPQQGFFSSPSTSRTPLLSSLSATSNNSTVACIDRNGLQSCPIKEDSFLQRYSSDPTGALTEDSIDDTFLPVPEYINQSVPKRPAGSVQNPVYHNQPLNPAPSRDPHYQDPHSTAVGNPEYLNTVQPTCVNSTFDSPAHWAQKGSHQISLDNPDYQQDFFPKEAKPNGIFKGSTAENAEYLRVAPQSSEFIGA", "test": "Inhibition of EGFR L747-E749del/A750P mutant (unknown origin) assessed as residual activity at 100 nM by KINOMEscan analysis relative to control"}, "[5]": {"molecular_target": "T1, Phosphatidylinositol 3-kinase C2 domain-containing subunit gamma (Homo sapiens) (UniProt O75747)", "T1 sequence (whole entry)": "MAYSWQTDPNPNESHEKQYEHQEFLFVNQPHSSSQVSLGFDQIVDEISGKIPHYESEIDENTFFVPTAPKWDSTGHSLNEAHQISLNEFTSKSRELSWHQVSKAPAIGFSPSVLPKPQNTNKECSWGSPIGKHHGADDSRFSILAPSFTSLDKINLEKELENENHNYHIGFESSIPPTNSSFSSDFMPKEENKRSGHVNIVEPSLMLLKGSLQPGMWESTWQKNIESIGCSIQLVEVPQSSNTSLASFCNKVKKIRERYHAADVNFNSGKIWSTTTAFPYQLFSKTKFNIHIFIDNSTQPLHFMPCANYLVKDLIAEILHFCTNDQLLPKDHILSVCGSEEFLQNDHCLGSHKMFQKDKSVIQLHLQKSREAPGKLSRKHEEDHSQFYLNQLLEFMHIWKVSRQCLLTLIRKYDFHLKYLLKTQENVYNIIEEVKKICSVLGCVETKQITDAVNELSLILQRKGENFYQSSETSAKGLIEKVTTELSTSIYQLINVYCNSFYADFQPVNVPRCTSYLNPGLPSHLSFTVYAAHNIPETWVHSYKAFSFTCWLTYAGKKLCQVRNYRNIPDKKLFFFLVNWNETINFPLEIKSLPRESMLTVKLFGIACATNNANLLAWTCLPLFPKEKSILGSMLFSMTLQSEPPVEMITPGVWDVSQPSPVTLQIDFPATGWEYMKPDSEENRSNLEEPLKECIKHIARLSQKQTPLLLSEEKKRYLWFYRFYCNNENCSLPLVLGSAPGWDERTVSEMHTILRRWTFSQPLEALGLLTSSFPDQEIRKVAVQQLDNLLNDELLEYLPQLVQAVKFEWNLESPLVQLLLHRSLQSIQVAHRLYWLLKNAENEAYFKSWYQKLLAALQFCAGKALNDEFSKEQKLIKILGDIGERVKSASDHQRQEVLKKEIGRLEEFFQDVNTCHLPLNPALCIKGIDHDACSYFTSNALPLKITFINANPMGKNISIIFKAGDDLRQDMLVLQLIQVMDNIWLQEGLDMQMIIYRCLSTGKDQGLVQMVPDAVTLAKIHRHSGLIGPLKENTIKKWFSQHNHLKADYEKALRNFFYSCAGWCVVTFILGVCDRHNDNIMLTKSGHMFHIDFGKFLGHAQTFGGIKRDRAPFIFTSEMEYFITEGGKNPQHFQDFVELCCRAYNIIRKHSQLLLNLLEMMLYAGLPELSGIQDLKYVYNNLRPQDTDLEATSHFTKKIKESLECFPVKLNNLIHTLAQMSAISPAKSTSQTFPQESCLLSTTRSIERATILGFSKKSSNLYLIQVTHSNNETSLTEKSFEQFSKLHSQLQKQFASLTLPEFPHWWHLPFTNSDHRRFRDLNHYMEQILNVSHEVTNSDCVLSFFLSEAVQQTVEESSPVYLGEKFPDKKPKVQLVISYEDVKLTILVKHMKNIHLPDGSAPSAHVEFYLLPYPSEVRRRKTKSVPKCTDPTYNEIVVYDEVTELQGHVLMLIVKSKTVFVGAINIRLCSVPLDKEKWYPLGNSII", "test": "Inhibition of PIK3C2G (unknown origin) assessed as residual activity at 100 nM by KINOMEscan analysis relative to control"}, "[6]": {"molecular_target": "Activin receptor type-1-like (Homo sapiens) (UniProt P37023)", "sequence (P37023 whole entry)": "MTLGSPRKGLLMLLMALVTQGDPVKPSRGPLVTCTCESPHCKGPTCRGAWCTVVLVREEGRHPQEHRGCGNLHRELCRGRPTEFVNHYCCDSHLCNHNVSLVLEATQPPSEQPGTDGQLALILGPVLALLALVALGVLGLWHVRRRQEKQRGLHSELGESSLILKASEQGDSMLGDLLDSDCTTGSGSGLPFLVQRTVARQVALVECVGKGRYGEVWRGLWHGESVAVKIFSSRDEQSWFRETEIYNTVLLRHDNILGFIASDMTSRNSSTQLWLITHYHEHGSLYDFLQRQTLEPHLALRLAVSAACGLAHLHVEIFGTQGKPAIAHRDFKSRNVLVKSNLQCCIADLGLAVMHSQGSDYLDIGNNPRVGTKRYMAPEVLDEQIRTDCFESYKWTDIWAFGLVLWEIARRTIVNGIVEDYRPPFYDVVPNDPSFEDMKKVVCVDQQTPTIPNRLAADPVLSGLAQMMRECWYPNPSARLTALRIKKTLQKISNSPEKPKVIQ", "test": "Inhibition of ACVRL1 (unknown origin) assessed as residual activity at 100 nM by KINOMEscan analysis relative to control"}, "[7]": {"molecular_target": "Calcium-dependent protein kinase 1 (Plasmodium falciparum) (UniProt P62344)", "sequence (P62344 2-524 limits assumed)": "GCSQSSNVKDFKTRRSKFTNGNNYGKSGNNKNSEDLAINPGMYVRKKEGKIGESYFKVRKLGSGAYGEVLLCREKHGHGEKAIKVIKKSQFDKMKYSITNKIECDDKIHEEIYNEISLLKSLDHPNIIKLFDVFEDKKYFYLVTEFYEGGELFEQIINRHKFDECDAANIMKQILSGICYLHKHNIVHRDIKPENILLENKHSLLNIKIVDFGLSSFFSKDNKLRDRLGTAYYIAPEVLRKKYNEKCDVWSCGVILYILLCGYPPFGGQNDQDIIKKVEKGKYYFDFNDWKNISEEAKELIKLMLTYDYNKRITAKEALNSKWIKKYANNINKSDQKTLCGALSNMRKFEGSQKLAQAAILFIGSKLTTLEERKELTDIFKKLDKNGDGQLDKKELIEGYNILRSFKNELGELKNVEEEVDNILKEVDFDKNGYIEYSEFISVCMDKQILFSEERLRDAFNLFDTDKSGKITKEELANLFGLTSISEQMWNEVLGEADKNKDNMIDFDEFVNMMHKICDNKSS", "test": "Inhibition of Plasmodium falciparum CDPK1 assessed as residual activity at 100 nM by KINOMEscan analysis relative to control"}}}
{"smiles": "COc1cc2nc(C)nc(N[C@H](C)c3cccc(-c4cn[nH]c4)c3)c2cc1OC", "values": [{"measurement": "Activity", "setting": "[1]", "value": 76, "unit": "%"}]}
{"smiles": "COc1cc2ncnc(N[C@H](C)c3cccc4ccccc34)c2cc1OC", "values": [{"measurement": "Activity", "setting": "[2]", "value": 66, "unit": "%"}, {"measurement": "Activity", "setting": "[3]", "value": 83, "unit": "%"}, {"measurement": "Activity", "setting": "[4]", "value": 92, "unit": "%"}, {"measurement": "Activity", "setting": "[5]", "value": 85, "unit": "%"}, {"measurement": "Activity", "setting": "[6]", "value": 82, "unit": "%"}, {"measurement": "Activity", "setting": "[7]", "value": 84, "unit": "%"}]}
